Experimental data reported in publication PMC6337671, “Simultaneous Determination of Five Phenolic Acids and Four Flavonoid Glycosides in Rat Plasma Using HPLC-MS/MS and Its Application to a Pharmacokinetic Study after a Single Intravenous Administration of Kudiezi Injection” (Molecules, 2018).
Where two headings read alike, the source gives them in different places.

Assays:
[1] = Pharmacokinetic study in rats after a single intravenous administration of concentrated Kudiezi injection (HPLC-MS/MS of plasma); assay type: in vivo, Sprague-Dawley rats; settings: single i.v. 3.6 mL/kg of 15 times concentrated KI, mean ± SD; for MRT last: n = 5, read-out: MRT0-t; for MRT inf: n = 5, read-out: MRT0-∞
Procedure: Eight male Sprague-Dawley rats (200 ± 20 g) were obtained from Laboratory Animal Center of Fujian Medical University (Fuzhou, China). The animal studies were conducted in accordance with the Guide for the Care and Use of Laboratory Animals published by the USA National Institutes of Health (NIH Publication No. 85-23, revised 1996) and were approved by the Animal Ethic Review Committee of Fujian Medical University (Fuzhou, China). The rats were housed in rat cages (48 × 29 × 18 cm^3), in a unidirectional airflow room at a temperature of 22 ± 2 °C, a relative humidity of 40–70% and a 12 h light/dark cycle. They were fed with freely available commercial food and filtered tap water, and fasted with free access to water for 12 h before the experiments. Three of these rats were selected randomly as blank group with the above mentioned feeding conditions and without administration of drug, and after 24 h from the beginning of the experiment, their blood was collected up exhaustively from abdominal aorta to provide blank plasma for methodological validation. […] All rats were acclimated to the facilities and environment for 7 days before the experiments.
After administration, the rat tail was carefully cleaned with alcohol soaked cotton balls around the injection site to remove the residual drug. Blood was collected from the cut-tail before dosing and at the following time points: 2.5, 5, 10, 15, 20, 30, 45 min and 1, 2, 3, 4, 6, 8, 12 and 24 h after dosing. Plasma was isolated from the blood samples by centrifugation and then stored at −80 °C until analysis.
Noncompartmental pharmacokinetic parameters were calculated by DAS 3.0 software (Version DAS 3.2.8, Chinese Pharmacologic Society, Beijing, China). All the results are expressed as mean ± SD. A single-tailed Student’s t test was performed in the work.

[2] = Stability of the nine components in rat plasma QC samples (auto-sampler, freeze-thaw, long-term); assay type: physicochemical; settings: n = 5; for 6 h in Auto-Sample, RE: extracted rat plasma; for Freeze-Thaw Stability (Three Cycles), RE / Long-Term Stability (−80 °C, 14 Days), RE: rat plasma
Procedure: The stability of the nine components in rat plasma was investigated under a variety of storage and process conditions. Table 4 summarizes the results of post-preparation (The QC samples were kept in the auto-sampler for 6 h), freeze and thaw and long-term (at −80 °C for 14 days) stability experiments.
Stability of the nine components were assessed under the condition of placing extracted plasma samples in auto-sampler for 6 h, as well as placing plasma samples within freeze-thaw three cycles and at −80 °C for 14 days. LQC, MQC and HQC samples with five replicates at each level were kept at the above conditions and analyzed against freshly prepared calibrators as the reference.

[3] = system: Mas-related G protein coupled receptor X2; set-up: method as in PMID 30048896; settings: cited from earlier work
[4] = male, Sprague-Dawley, rat, plasma, iv, 3.6 mL/kg, n = 5
[5] = male, Sprague-Dawley, rat, plasma, iv, 3.6 mL/kg, n = 5, read-out: AUC0-t
[6] = male, Sprague-Dawley, rat, plasma, iv, 3.6 mL/kg
[7] = male, Sprague-Dawley, rat, plasma, iv, 3.6 mL/kg, n = 5, read-out: Vd
[8] = HQC spiked 2000 ng/mL (4000 ng/mL for II)
[9] = LQC spiked 15 ng/mL (30 ng/mL for II)
[10] = MQC spiked 500 ng/mL (1000 ng/mL for II)

| Structure (SMILES) | AUC(0-inf) [1, 4] [ng·h/mL] | clearance [1, 4] [mL/min/kg] | half-life [1, 4] [h] | AUC(0-t) [1, 5] [ng·h/mL] | MRT last [1, 6] [h] | MRT inf [1, 6] [h] | Vd [1, 7] [L/kg] | 6 h in Auto-Sample, RE [2, 8] [%] | 6 h in Auto-Sample, RE [2, 9] [%] | 6 h in Auto-Sample, RE [2, 10] [%] | Freeze-Thaw Stability (Three Cycles), RE [2, 8] [%] | Long-Term Stability (−80 °C, 14 Days), RE [2, 8] [%] | Freeze-Thaw Stability (Three Cycles), RE [2, 9] [%] | Long-Term Stability (−80 °C, 14 Days), RE [2, 9] [%] | Freeze-Thaw Stability (Three Cycles), RE [2, 10] [%] | Long-Term Stability (−80 °C, 14 Days), RE [2, 10] [%] | identified as potential anaphylactoid component in KI [3] | other results |
| --- | --- | --- | --- | --- | --- | --- | --- | --- | --- | --- | --- | --- | --- | --- | --- | --- | --- | --- |
| O=C(O)/C=C/c1ccc(O)c(O)c1 [Compound V, caffeic acid] | 237 ± 43.6 | 34.7 | 6.09 ± 0.9 | 146 ± 40.8 | 4.09 ± 1.36 | 9.75 ± 1.7 | 17.9 ± 1.44 | −11.88 | −18.04 | −14.10 | −7.76 | 7.83 | −13.66 | −17.21 | −2.10 | −5.99 | – | – |
| O=c1cc(-c2ccc(O)c(O)c2)oc2cc(O[C@@H]3O[C@H](CO[C@@H]4O[C@H](CO)[C@@H](O)[C@H](O)[C@H]4O)[C@@H](O)[C@H](O)[C@H]3O)cc(O)c12 [Compound VI, luteolin-7-O-β-D-gentiobioside] | 173 ± 15 | 128 | 0.23 ± 0.12 | 164 ± 8.34 | 0.2 ± 0.08 | 0.28 ± 0.15 | 2.51 ± 1.13 | 0.23 | −14.11 | −14.25 | 9.34 | −5.24 | −13.29 | −0.68 | −3.78 | 2.31 | – | – |
| O=C(/C=C/c1ccc(O)c(O)c1)O[C@@H]1C[C@](O)(C(=O)O)C[C@@H](O)[C@H]1O [I, 5-caffeoylquinic acid] | 209 ± 75.7 | 49.8 | 2.22 ± 1.15 | 170 ± 55.7 | 2.29 ± 1.65 | 3.94 ± 2.71 | 8.22 ± 2.51 | −5.26 | −15.03 | −14.93 | −2.66 | −3.42 | −16.92 | −10.71 | −8.67 | −1.12 | – | – |
| O=C(/C=C/c1ccc(O)c(O)c1)O[C@@H](C(=O)O)[C@@H](O)C(=O)O [II, caftaric acid] | 3080 ± 483 | 64.2 | 3.93 ± 0.47 | 2760 ± 400 | 3.84 ± 1.84 | 6.25 ± 2.83 | 22.1 ± 6.21 | 3.63 | −12.49 | −9.25 | 3.72 | −10.05 | −17.36 | 1.30 | 2.66 | −5.34 | – | – |
| O=C(/C=C/c1ccc(O)c(O)c1)O[C@@H]1C[C@](O)(C(=O)O)C[C@@H](O)[C@H]1O [III, chlorogenic acid] | – | – | – | – | – | – | – | −2.78 | −7.40 | −14.11 | 2.98 | 2.07 | −18.29 | −1.71 | −5.77 | −1.20 | – | AUC0-∞ ([1]; rat plasma, n = 5): 199.84 ± 37.15 ng·h/mL; AUC(0-t) ([1]; rat plasma, n = 5): 155.43 ± 23.39 ng·h/mL; Cl ([1]; rat plasma, n = 5): 42.2 ± 7.17 mL/min/kg; MRT0-t ([1]; rat plasma, n = 5): 3.30 ± 0.99 h; MRT0-∞ ([1]; rat plasma, n = 5): 5.93 ± 1.39 h; Vd ([1]; rat plasma, n = 5): 11.96 ± 3.10 L/kg; t1/2 ([1]; rat plasma, n = 5): 3.36 ± 0.97 h |
| O=C(/C=C/c1ccc(O)c(O)c1)O[C@H]1[C@H](O)C[C@](O)(C(=O)O)C[C@H]1O [IV, 4-caffeoylquinic acid] | 209 ± 54 | 30.2 | 2.92 ± 1.13 | 160 ± 39.4 | 2.72 ± 1.32 | 5.07 ± 2.17 | 7.03 ± 1.29 | 6.12 | −14.16 | −15.00 | 6.55 | 2.14 | −14.73 | −10.44 | −0.15 | −1.40 | – | – |

Continued, in another order:

| AUC(0-inf) [1, 4] [ng·h/mL] | clearance [1, 4] [mL/min/kg] | half-life [1, 4] [h] | AUC(0-t) [1, 5] [ng·h/mL] | MRT last [1, 6] [h] | MRT inf [1, 6] [h] | Vd [1, 7] [L/kg] | 6 h in Auto-Sample, RE [2, 8] [%] | 6 h in Auto-Sample, RE [2, 9] [%] | 6 h in Auto-Sample, RE [2, 10] [%] | Freeze-Thaw Stability (Three Cycles), RE [2, 8] [%] | Long-Term Stability (−80 °C, 14 Days), RE [2, 8] [%] | Freeze-Thaw Stability (Three Cycles), RE [2, 9] [%] | Long-Term Stability (−80 °C, 14 Days), RE [2, 9] [%] | Freeze-Thaw Stability (Three Cycles), RE [2, 10] [%] | Long-Term Stability (−80 °C, 14 Days), RE [2, 10] [%] | Structure (SMILES) | identified as potential anaphylactoid component in KI [3] | other results |
| --- | --- | --- | --- | --- | --- | --- | --- | --- | --- | --- | --- | --- | --- | --- | --- | --- | --- | --- |
| 56.1 ± 8.49 | 168 | 0.07 ± 0.01 | 55.7 ± 8.5 | 0.09 ± 0.01 | 0.09 ± 0.01 | 1 ± 0.24 | 7.78 | −13.77 | −1.56 | 3.36 | 5.33 | −13.08 | −2.73 | 0.53 | −0.28 | O=C(O)[C@H]1O[C@@H](Oc2cc(O)c3c(=O)cc(-c4ccc(O)cc4)oc3c2)[C@H](O)[C@@H](O)[C@@H]1O [IX, apigenin-7-O-β-D-glucuronide] | potential anaphylactoid components | – |
| 680 ± 109 | 95.5 | 0.66 ± 0.2 | 672 ± 107 | 0.25 ± 0.11 | 0.3 ± 0.12 | 5.3 ± 1.21 | 5.65 | −7.74 | −12.46 | 9.76 | 8.01 | −10.80 | −2.91 | −1.08 | −0.26 | O=C(O)[C@H]1O[C@@H](Oc2cc(O)c3c(=O)cc(-c4ccc(O)c(O)c4)oc3c2)[C@H](O)[C@@H](O)[C@@H]1O [VII, luteolin-7-O-β-D-glucuronide] | potential anaphylactoid components | – |
| 31 ± 2.09 | 138 | 0.13 ± 0.02 | 29.5 ± 2.38 | 0.09 ± 0.02 | 0.11 ± 0.02 | 1.51 ± 0.35 | 0.65 | −12.91 | −8.04 | 3.11 | 11.47 | −11.91 | −1.72 | 0.67 | 0.81 | O=c1cc(-c2ccc(O)c(O)c2)oc2cc(O[C@@H]3O[C@H](CO)[C@@H](O)[C@H](O)[C@H]3O)cc(O)c12 [VIII, luteolin-7-O-β-D-glucoside] | potential anaphylactoid components | – |
